Legend:
[1] = Highest frequency of moderate liver toxicity observed during clinical trials, expressed as a percentage. [column '% BIOL' in source]; settings: human
[2] = Highest frequency of acute liver toxicity observed during clinical trials, expressed as a percentage. [column '% AIGUE' in source]; settings: human
[3] = Times to onset, minimal and maximal, observed in the indexed observations. [column 'DELAI' in source]; settings: human
[4] = human, serum
[5] = human, serum; remark: listed apart in the source
[6] = human
[7] = human; remark: listed apart in the source
[8] = human; remark: listed apart in the source
[9] = human, serum, 4383 h
[10] = human; remark: listed apart in the source
[11] = human; remark: listed apart in the source
[12] = human; remark: listed apart in the source
[13] = human; remark: listed apart in the source
[14] = human; remark: listed apart in the source
[15] = human; remark: listed apart in the source
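Wherever Hepatotoxicity (association with vascular disease) is given: count of indexed literature references reporting vascular liver injury in humans, e.g. peliosis hepatitis, hepatic veno-occlusive disease or Budd-Chiari syndrome.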
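Wherever Hepatotoxicity (benign tumour) is given: value is a count of indexed literature references citing a benign tumour confirmed by histopathology.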
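Wherever Hepatotoxicity (choleostasis) is given: human cholestatic liver injury, shown by histopathology or by peak ALT or AST elevation over alkaline phosphatase ratio below 2, value counts indexed literature reports.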
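Wherever Hepatotoxicity (chronic liver disease) is given: chronic liver injury confirmed by histopathology or persistently raised serum aminotransferase activity beyond 6 months, value given as the count of indexed literature references.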
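Wherever Hepatotoxicity (cirrhosis) is given: value is a count of indexed literature references reporting cirrhosis confirmed by histopathology.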
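Wherever Hepatotoxicity (cytolytic) is given: human cytolytic liver injury, shown by histopathology or by a ratio above 5 of peak ALT or AST elevation to alkaline phosphatase elevation, value counts indexed references.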
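Wherever Hepatotoxicity (granulomatous hepatitis) is given: value is a count of indexed literature references reporting granulomatous liver disease confirmed by histopathology.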
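Wherever Hepatotoxicity (malignant tumour) is given: malignant tumour confirmed by histopathology, value gives the count of indexed literature references reporting it.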
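Wherever Hepatotoxicity (severe hepatitis) is given: human clinical data: severe hepatitis, meaning potentially life-threatening liver failure or clinically observed cases, the value counts how many indexed literature references report it.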
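Wherever Hepatotoxicity (steatosis) is given: steatosis confirmed by histopathology, value is the count of indexed references.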

Compound | Hepatotoxicity (moderate) [1] [%] | Hepatotoxicity (acute) [2] [%] | Hepatotoxicity (time to onset) [3] | Hepatotoxicity (moderate) [4] | Hepatotoxicity (acute) [5] | Hepatotoxicity (cytolytic) [6] | Hepatotoxicity (choleostasis) [7] | Hepatotoxicity (severe hepatitis) [8] | Hepatotoxicity (chronic liver disease) [9] | Hepatotoxicity (cirrhosis) [10] | Hepatotoxicity (granulomatous hepatitis) [11] | Hepatotoxicity (association with vascular disease) [12] | Hepatotoxicity (steatosis) [13] | Hepatotoxicity (malignant tumour) [14] | Hepatotoxicity (benign tumour) [15]
[H]/N=C(/N)N/C(=N/[H])NCCc1ccccc1 [PHENFORMIN] | 0 | 0 | 1 week | 0 | 1 | 0 | 0 | 0 | 0 | 0 | 0 | 0 | 0 | 0 | 0
CC(COc1ccccc1)NN (stereo not given) [PHENOXYPROPAZINE] | 0 | 0 | 1.5 months - 4 months | 0 | 3 | 3 | 0 | 3 | 0 | 0 | 0 | 0 | 0 | 0 | 0
O=c1[nH]c2ccccc2n1C1CCN(CCCC(c2ccc(F)cc2)c2ccc(F)cc2)CC1 [PIMOZIDE] | 0 | 0 | 3 days | 2 | 0 | 0 | 0 | 0 | 0 | 0 | 0 | 0 | 0 | 0 | 0
O=C(CCBr)N1CCN(C(=O)CCBr)CC1 [PIPOBROMAN] | 0 | 0 | 2 months | 0 | 1 | 1 | 0 | 0 | 0 | 0 | 0 | 0 | 0 | 0 | 0
NS(=O)(=O)c1cc(C(=O)O)cc(N2CCCC2)c1Oc1ccccc1 [PIRETANIDE] | 0 | 0 | 3 weeks | 0 | 1 | 1 | 0 | 0 | 0 | 0 | 0 | 0 | 0 | 0 | 0
c1cnc(N2CCN(Cc3ccc4c(c3)OCO4)CC2)nc1 [PIRIBEDIL] | 10 | 0 | 12 days - 2.5 months | 2 | 0 | 0 | 0 | 0 | 0 | 0 | 0 | 0 | 0 | 0 | 0
CN1CCC(=C2c3ccccc3CCc3sccc32)CC1 [PIZOTYLINE] | 0 | 0 | 12 days | 0 | 1 | 0 | 1 | 0 | 0 | 0 | 0 | 0 | 0 | 0 | 0
